What was measured:
Glycine max [1] = assay: Activity of soybean lipoxygenase 1
Glycine max [2] = assay: Activity of soybean lipoxygenase 1 assessed as rate of oxidation under diffusion-controlled reaction at 20 deg C
Glycine max [3] = assay: Activity of soybean lipoxygenase 1 assessed as rate of oxidation under diffusion-controlled reaction at 5 deg C
Glycine max [4] = assay: Activity of soybean lipoxygenase 1 assessed as rate of oxidation under diffusion-controlled reaction at 37 deg C

Compound	Km (Glycine max [1])	Activity (Glycine max [2])	Activity (Glycine max [3])	Activity (Glycine max [4])
CCCCC/C=C\C/C=C\C/C=C\C/C=C\CCCC(=O)O	15 µM	56%	18%	28%
CCCCC/C=C\C/C=C\CCCCCCCC(=O)O	39 µM			
